Values after ≈ are worked out from the molar mass of the structure shown. Where a SMILES comes first, the peptide text is derived from it.
Columns and labels:
Assay type in all cases: functional
[1] = test system: A498; experiment: Tested for cytostatic activity against renal A498 cell line; details: Homo sapiens
[2] = test system: KM-20L2; experiment: Tested for cytostatic activity against colon KM20L2 cell line; details: Homo sapiens
[3] = test system: NCI-H460; experiment: Tested for cytostatic activity against lung-NSC […] cell line; details: Homo sapiens
[4] = test system: SF-295; experiment: Tested for cytostatic activity against CNS SF-295 cell line; details: Homo sapiens
[5] = test system: SK-MEL-5; experiment: Tested for cytostatic activity against melanoma SK-MEL-5 cell line; details: Homo sapiens
[6] = test system: OVCAR-3; experiment: Tested for cytostatic activity against ovarian OVCAR-3 cell line; details: Homo sapiens
[7] = test system: P388; experiment: Tested for in vitro cytotoxicity against the murine leukemia P388 cell line; details: Mus musculus, read-out: ED50 (the source's name)

Structure (SMILES): CC[C@H](C)[C@@H]1NC(=O)[C@H](Cc2ccccc2)NC(=O)[C@@H]2CCCN2C(=O)[C@H](CC(N)=O)NC(=O)[C@H](C(C)C)NC(=O)[C@@H]2CCCN2C(=O)[C@H](CC(C)C)NC1=O (cyclo(FILPVNP))
- GI50 [1]: 0.11 µg/mL (≈ 0.141 µM)
- GI50 [2]: 0.055 µg/mL (≈ 0.0704 µM)
- GI50 [3]: 0.033 µg/mL (≈ 0.0423 µM)
- GI50 [4]: 0.18 µg/mL (≈ 0.23 µM)
- GI50 [5]: 0.012 µg/mL (≈ 0.0154 µM)
- GI50 [6]: 0.0072 µg/mL (≈ 0.00922 µM)

Structure (SMILES): CC(C)C[C@@H]1NC(=O)[C@H](C(C)C)NC(=O)[C@H](Cc2ccccc2)NC(=O)[C@@H]2CCCN2C(=O)[C@H](CC(N)=O)NC(=O)[C@H](C(C)C)NC(=O)[C@@H]2CCCN2C1=O (cyclo(FVLPVNP))
- GI50 [1]: 0.38 µg/mL (≈ 0.495 µM)
- GI50 [2]: 0.23 µg/mL (≈ 0.3 µM)
- GI50 [3]: 0.19 µg/mL (≈ 0.248 µM)
- EC50 [7]: 0.02 µg/mL (≈ 0.0261 µM)
- GI50 [4]: 0.35 µg/mL (≈ 0.456 µM)
- GI50 [5]: 0.068 µg/mL (≈ 0.0887 µM)
- GI50 [6]: 0.058 µg/mL (≈ 0.0756 µM)
